# Where two headings read alike, the source gives them in different places.
# What was measured:
# [1] = test system: E. coli Ec50 efflux pump KO; assay: microbe, parasite or virus in culture; type: cell-based; settings: Escherichia coli, read-out: MIC Ec50 efflux pump KO
# [2] = test system: H. influenza Hi106 ATCC 51907; assay: organism not typed; type: cell-based; settings: read-out: MIC Hi106
# [3] = test system: H. influenza Hi10 clinical strain; assay: organism not typed; type: cell-based; settings: read-out: MIC Hi10
# S. aureus Sa1 ATCC 13709 = assay: microbe, parasite or virus in culture; type: cell-based; settings: Staphylococcus aureus
# DNA III Polymerase E = DNA III Polymerase E (Escherichia coli, UniProt P10443); assay: In vitro activity against DNA III Polymerase E, E. coli; type: biochemical
# Chain of DNA III Polymerase E (P10443 whole entry): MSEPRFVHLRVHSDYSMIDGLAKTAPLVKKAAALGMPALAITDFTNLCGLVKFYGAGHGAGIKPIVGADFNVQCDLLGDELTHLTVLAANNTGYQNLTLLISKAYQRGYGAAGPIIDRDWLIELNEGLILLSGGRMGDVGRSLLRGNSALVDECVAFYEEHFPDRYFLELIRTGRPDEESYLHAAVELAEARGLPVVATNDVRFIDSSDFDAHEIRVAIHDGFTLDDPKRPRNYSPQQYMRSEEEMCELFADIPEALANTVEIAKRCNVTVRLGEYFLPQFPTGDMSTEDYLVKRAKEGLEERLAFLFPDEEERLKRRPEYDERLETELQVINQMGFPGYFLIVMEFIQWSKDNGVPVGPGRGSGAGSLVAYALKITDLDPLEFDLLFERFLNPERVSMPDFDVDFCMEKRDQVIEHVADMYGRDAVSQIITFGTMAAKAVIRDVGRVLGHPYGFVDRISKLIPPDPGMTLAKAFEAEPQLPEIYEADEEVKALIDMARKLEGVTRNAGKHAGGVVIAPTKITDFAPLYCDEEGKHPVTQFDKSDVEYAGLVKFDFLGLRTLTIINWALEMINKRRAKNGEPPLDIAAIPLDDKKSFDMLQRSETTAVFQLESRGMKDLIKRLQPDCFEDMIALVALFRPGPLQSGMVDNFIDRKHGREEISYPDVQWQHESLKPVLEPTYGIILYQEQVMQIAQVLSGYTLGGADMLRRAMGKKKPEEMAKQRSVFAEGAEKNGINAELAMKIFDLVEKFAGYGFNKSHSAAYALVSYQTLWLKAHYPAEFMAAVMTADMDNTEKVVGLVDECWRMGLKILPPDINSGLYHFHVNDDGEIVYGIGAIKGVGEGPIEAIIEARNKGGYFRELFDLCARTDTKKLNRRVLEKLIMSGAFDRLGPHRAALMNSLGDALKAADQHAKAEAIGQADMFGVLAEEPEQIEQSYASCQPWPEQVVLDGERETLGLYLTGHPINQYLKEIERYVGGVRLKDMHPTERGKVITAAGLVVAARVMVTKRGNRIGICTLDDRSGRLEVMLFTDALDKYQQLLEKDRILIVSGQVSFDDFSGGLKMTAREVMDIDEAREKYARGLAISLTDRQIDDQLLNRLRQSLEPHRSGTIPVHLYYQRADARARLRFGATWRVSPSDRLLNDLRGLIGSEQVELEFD
# Experimental: A radioactive filterplate assay was used to assess inhibitory activity of compounds on DNA Polymerase IIIα. Five μL of a dilution series of compound, starting from 100 μM highest concentration, 1/5 dilution, was added to the wells of a 96 well plate. Recombinant enzyme was diluted to 0.47 μg/mL in a buffer containing 20 mM Tris pH7.5, 8 mM DTT, 10 mM MgOAc, 0.05% CHAPS and 10 μL thereof was added to the compound dilutions. The reaction was started with the addition of 10 μL substrate in the same buffer, containing activated calf thymus DNA (Sigma, D4522), dATP, dGTP, dCTP, dTTP (Invitrogen) and [α-33P]-dTTP (Perkin Elmer, NEG605H001) at a concentration of 62.5 μg/mL, 50 nM and 7.5 μCi/mL respectively. The mixture was incubated at 30° C. for 120 minutes and terminated by addition of phosphoric acid. Samples were transferred to filter plates and incorporated radioactivity was measured by the Topcount. Data were converted to percent inhibition with respect to positive and negative controls. IC50 values were calculated using Graph Prism™ software.
# [4] = target: DNA Polymerase IIIα (DnaE) from Staphylococcus aureus (Staphylococcus aureus, UniProt Q6GG04); assay: biochemical
# Chain of DNA Polymerase IIIα (DnaE) from Staphylococcus aureus (Q6GG04 1-1022): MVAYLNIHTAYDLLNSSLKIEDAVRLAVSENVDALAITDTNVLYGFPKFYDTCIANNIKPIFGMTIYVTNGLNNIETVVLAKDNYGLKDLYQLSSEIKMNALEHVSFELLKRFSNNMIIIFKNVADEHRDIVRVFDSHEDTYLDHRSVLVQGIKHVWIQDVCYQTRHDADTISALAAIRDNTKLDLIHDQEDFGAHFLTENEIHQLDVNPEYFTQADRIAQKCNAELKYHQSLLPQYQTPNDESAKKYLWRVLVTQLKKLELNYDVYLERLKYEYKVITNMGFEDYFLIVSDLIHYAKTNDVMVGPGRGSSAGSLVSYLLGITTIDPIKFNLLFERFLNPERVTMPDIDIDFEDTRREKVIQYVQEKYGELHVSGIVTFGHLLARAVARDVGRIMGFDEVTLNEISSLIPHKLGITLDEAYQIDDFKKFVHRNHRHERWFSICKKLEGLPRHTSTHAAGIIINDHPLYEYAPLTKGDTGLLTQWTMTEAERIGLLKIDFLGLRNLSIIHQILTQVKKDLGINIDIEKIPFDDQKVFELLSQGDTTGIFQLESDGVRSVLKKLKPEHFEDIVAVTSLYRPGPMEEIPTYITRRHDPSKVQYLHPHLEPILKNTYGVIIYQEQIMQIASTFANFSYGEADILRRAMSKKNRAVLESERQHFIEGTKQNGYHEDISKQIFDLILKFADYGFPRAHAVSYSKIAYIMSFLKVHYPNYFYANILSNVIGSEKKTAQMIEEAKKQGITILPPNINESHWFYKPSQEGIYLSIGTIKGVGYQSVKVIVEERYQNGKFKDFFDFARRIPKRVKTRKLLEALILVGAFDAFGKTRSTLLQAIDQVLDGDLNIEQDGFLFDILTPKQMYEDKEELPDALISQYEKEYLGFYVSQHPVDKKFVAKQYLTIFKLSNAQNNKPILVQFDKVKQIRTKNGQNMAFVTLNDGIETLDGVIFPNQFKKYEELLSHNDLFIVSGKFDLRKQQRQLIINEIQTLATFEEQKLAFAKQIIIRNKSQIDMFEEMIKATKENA
# [5] = test system: S. aureus Sa2 clinical strain NCIMB 41953, MRSA; assay: microbe, parasite or virus in culture; type: cell-based; settings: Staphylococcus aureus, read-out: MIC Sa2
# E. coli Ec1 ATCC 25922 = assay: Antibacterial activity assay (MIC), E. coli Ec1; type: cell-based; settings: Escherichia coli
# [6] = test system: S. aureus Sa26 ATCC 25923; assay: Antibacterial activity assay (MIC), S. aureus Sa26; type: cell-based; settings: Staphylococcus aureus
# [7] = test system: H. influenza Hi3 ATCC 31517; assay: organism not typed; type: cell-based; settings: read-out: MIC Hi3
# [8] = test system: E. coli Ec113 efflux pump KO; assay: microbe, parasite or virus in culture; type: cell-based; settings: Escherichia coli, read-out: MIC Ec113 efflux pump KO
# S. aureus Sa4 NCTC 6571 = assay: Antibacterial activity assay (MIC), S. aureus Sa4; type: cell-based; settings: Staphylococcus aureus
# [9] = test system: H. influenza Hi47 clinical strain, Ampicillin Resistant; assay: organism not typed; type: cell-based; settings: read-out: MIC Hi47
# [10] = ATCC13709, S. aureus Sa1 ATCC 13709, sensitive strain, Mueller-Hinton Broth, 37° C., read-out: MIC Sa1
# [11] = ATCC25922, E. coli Ec1 ATCC 25922, sensitive strain, read-out: MIC Ec1
# [12] = ATCC25923, read-out: MIC Sa26 + 10% SH, S. aureus Sa26 + 10% SH
# [13] = ATCC25923, read-out: MIC Sa26 + 50% SH, S. aureus Sa26 + 50% SH
# [14] = ATCC25923, S. aureus Sa26 ATCC 25923, sensitive strain, Mueller-Hinton Broth, 37° C., read-out: MIC Sa26
# [15] = NCTC6571, S. aureus Sa4 NCTC 6571, sensitive strain, read-out: MIC Sa4
# [16] = DNA polymerase III, E. coli, read-out: IC50 semiquantitative scoring, E. coli
# [17] = ATCC25923, read-out: MIC Sa26 + 10% SH
# [18] = ATCC25923, read-out: MIC Sa26 + 50% SH
SMILES,MIC [1] [µg/mL],MIC [2] [µg/mL],MIC [3] [µg/mL],MIC (S. aureus Sa1 ATCC 13709; [10]) [µg/mL],IC50 (DNA III Polymerase E) [nM],IC50 [4] [nM],MIC [5] [µg/mL],MIC (E. coli Ec1 ATCC 25922; [11]) [µg/mL],"MIC [6, 12] [µg/mL]","MIC [6, 13] [µg/mL]",MIC [7] [µg/mL],MIC [8] [µg/mL],MIC [9] [µg/mL],"MIC (S. aureus Sa1 ATCC 13709; ATCC13709, read-out: MIC Sa1) [µg/mL]",IC50 (DNA III Polymerase E; [16]) [nM],"MIC (E. coli Ec1 ATCC 25922; ATCC25922, read-out: MIC Ec1) [µg/mL]","MIC ([6]; ATCC25923, read-out: MIC Sa26) [µg/mL]","MIC [6, 17] [µg/mL]","MIC [6, 18] [µg/mL]","MIC (S. aureus Sa4 NCTC 6571; NCTC6571, read-out: MIC Sa4) [µg/mL]",further results
"COC[C@@H](O)[C@H]1OC(=O)[C@H](COC)[C@H]2C=C[C@H]3[C@H]4O[C@]2(/C(C)=C/[C@H]1C)[C@@H]3[C@H](O)[C@@H](C)[C@H]4O [Compound 1, Baleomycin]",2,64,> 64,> 64,2210 to 22100,2210 to 22100,> 64,> 64,> 64,> 64,> 64,0.5,64,,,,,,,,"MIC [6, 14]: > 64 µg/mL; MIC (S. aureus Sa4 NCTC 6571; [15]): > 64 µg/mL"
"COC[C@@H]1[C@@H](O)[C@@H]2[C@H]3C=C[C@@H]4[C@@H](COC)C(=O)O[C@H]([C@H](O)COC)[C@H](C)/C=C(\C)[C@@]24O[C@H]3[C@@H]1OC(=O)c1ccoc1C [Compound 11, 8-O-2-Methylfurane-3′-carbonylbranimycin]",> 64,> 64,> 64,> 64,> 16900,1690 to 16900,> 64,> 64,> 64,> 64,> 64,8,> 64,,,,,,,,"MIC [6, 14]: > 64 µg/mL; MIC (S. aureus Sa4 NCTC 6571; [15]): > 64 µg/mL"
"CO[C@H]1C[C@H]2C=C[C@H]3[C@H]4O[C@]2(/C(C)=C/[C@@H](C)[C@@H]([C@@H](C)O)OC1=O)[C@@H]3[C@H](O)[C@@H](C)[C@H]4O [Nodusmicin, reference compound]",1,64,64,,,2.37 to 2370,> 64,,,,64,0.25,32,> 64,2370 to 23700,> 64,> 64,> 64,> 64,> 64,
"COC[C@@H]1[C@@H](O)[C@@H]2[C@H]3C=C[C@@H]4C[C@H](O)C(=O)O[C@H]([C@H](O)COC)[C@H](C)/C=C(\C)[C@@]24O[C@H]3[C@@H]1OC(=O)c1ccc[nH]1 [Nargenicin B1, reference compound]",16,> 64,> 64,,,1.78 to 1780,0.5,,,,> 64,2,> 64,1,> 17800,> 64,2,2,1,0.5,
"COC[C@H]1[C@@H](O)[C@@H]2O[C@@]34/C(C)=C/[C@@H](C)[C@@H]([C@H](O)COC)OC(=O)[C@H](COC)[C@H]3CC[C@@H]2[C@H]4[C@@H]1O [Compound 15, 4,5-Dihydro-branimycin]",> 64,> 64,> 64,,> 20600,,> 64,,,,> 64,16,> 64,> 64,,> 64,> 64,> 64,> 64,> 64,"IC50 ([4]; DNA polymerase III, S. aureus, read-out: IC50 semiquantitative scoring, S. aureus): 2060 to 20600 nM"
"COC[C@@H]1[C@@H](O)[C@@H]2[C@H]3C=C[C@@H]4[C@@H](COC)C(=O)O[C@H]([C@H](O)COC)[C@H](C)/C=C(\C)[C@@]24O[C@H]3[C@@H]1OC(=O)c1cc(C)c[nH]1 [Compound 12, 8-O-4-Methyl-1H-pyrrole-2′-carbonylbranimycin]",> 64,64,> 64,,,1.7 to 1700,4,,,,> 64,2,64,8,> 17000,> 64,16,8,16,8,

# — patent US20160297830A1, “NOVEL COMPOUNDS USEFUL FOR THE TREATMENT OF BACTERIAL INFECTIOUS DISEASES” (GALAPAGOS NV, priority 2013, published 2016)
